This note sets out measurements from ChEMBL document CHEMBL3390848, “Affinity selection and sequence-activity relationships of HIV-1 membrane fusion inhibitors directed at the drug-resistant variants” (Medchemcomm, 2010).

Molecules are shown by their SMILES. Residues, ends and D or L forms follow the SMILES beside them.

Test [1] relates to Human immunodeficiency virus 1. Kind of test: Antiviral activity against HIV1 NL4-3 harboring gp41 D36G mutant infected in human HeLa cells expressing CD4-LTR-beta-gal assessed as inhibition of viral replication after 48 hrs by MAGI assay. Format: functional, organism-based.
For test [2], the system named is Human immunodeficiency virus 1. Kind of test: Binding affinity to HIV1 His-tagged N-terminal heptad repeat of envelope glycoprotein gp41 assessed as recovery of N54-drug complex after 2 hrs by LC-MS analysis. More on the design: concentration or dose not given beside the values.
Test [3] deals with Human immunodeficiency virus 1. Kind of test: Thermal stability of HIV1 envelope glycoprotein gp41 His-tagged N-terminal heptad repeat N54-drug complex assessed as thermal unfolding transition state by measuring molar ellipticity at 4 to 90 degC by circular dichroic spectra analysis.

A word on the EC50: it is the midpoint of the concentration-response curve. The term Tm denotes the temperature at which the thermal transition is half complete. On to `CC[C@H](C)[C@H](NC(=O)[C@H](CC(C)C)NC(=O)[C@H](CCC(=O)O)NC(=O)[C@H](CCC(=O)O)NC(=O)[C@@H](NC(=O)[C@H](CC(C)C)NC(=O)[C@H](CO)NC(=O)[C@@H](NC(=O)[C@H](Cc1ccc(O)cc1)NC(C)=O)[C@@H](C)O)[C@@H](C)CC)C(=O)N[C@@H](CCCCN)C(=O)N[C@@H](CCCCN)C(=O)N[C@@H](CO)C(=O)N[C@@H](CCC(=O)O)C(=O)N[C@@H](CCC(=O)O)C(=O)N1CCC[C@H]1C(=O)N[C@@H](CCC(N)=O)C(=O)N[C@@H](CCCCN)C(=O)N[C@@H](CCCCN)C(=O)N[C@@H](CC(N)=O)C(=O)N[C@@H](CCC(=O)O)C(=O)N[C@@H](CCC(=O)O)C(=O)N[C@@H](CCC(=O)O)C(=O)N[C@@H](CC(C)C)C(=O)N[C@@H](CCCCN)C(=O)N[C@@H](CCCCN)C(=O)N[C@@H](CC(C)C)C(=O)N[C@@H](CCC(=O)O)C(=O)N[C@@H](CCC(=O)O)C(=O)N[C@@H](Cc1c[nH]c2ccccc12)C(=O)N[C@@H](C)C(=O)N[C@@H](CCCCN)C(=O)N[C@@H](CCCCN)C(=O)N[C@@H](Cc1c[nH]c2ccccc12)C(=O)N[C@@H](CC(N)=O)C(=O)N[C@@H](Cc1c[nH]c2ccccc12)C(=O)N[C@@H](Cc1ccccc1)C(N)=O` (Ac-YTSLIEELIKKSEEPQKKNEEELKKLEEWAKKWNWF-NH2), for which the EC50 in test [1] is over 1000 nM. Also, the Activity in test [2] is 0.3%. Also, the Tm in test [3] came out at 52 °C.

Take `CC[C@H](C)[C@H](NC(=O)[C@H](CC(C)C)NC(=O)[C@H](CCC(=O)O)NC(=O)[C@H](CCC(=O)O)NC(=O)[C@@H](NC(=O)[C@H](CC(C)C)NC(=O)[C@H](CO)NC(=O)[C@@H](NC(=O)[C@H](Cc1ccc(O)cc1)NC(C)=O)[C@@H](C)O)[C@@H](C)CC)C(=O)N[C@@H](CCCCN)C(=O)N[C@@H](CCCCN)C(=O)N[C@@H](CCSC)C(=O)N[C@@H](CCC(=O)O)C(=O)N[C@@H](CCC(=O)O)C(=O)N[C@@H](CCC(N)=O)C(=O)N[C@@H](CCC(N)=O)C(=O)N[C@@H](CCCCN)C(=O)N[C@@H](CCCCN)C(=O)N[C@@H](CC(N)=O)C(=O)N[C@@H](CCC(=O)O)C(=O)N[C@@H](CCC(=O)O)C(=O)N[C@@H](CCC(=O)O)C(=O)N[C@@H](CC(C)C)C(=O)N[C@@H](CCCCN)C(=O)N[C@@H](CCCCN)C(=O)N[C@@H](CC(C)C)C(=O)N[C@@H](CCC(=O)O)C(=O)N[C@@H](CCC(=O)O)C(=O)N[C@@H](Cc1c[nH]c2ccccc12)C(=O)N[C@@H](C)C(=O)N[C@@H](CCCCN)C(=O)N[C@@H](CCCCN)C(=O)N[C@@H](Cc1c[nH]c2ccccc12)C(=O)N[C@@H](CC(N)=O)C(=O)N[C@@H](Cc1c[nH]c2ccccc12)C(=O)N[C@@H](Cc1ccccc1)C(N)=O` (Ac-YTSLIEELIKKMEEQQKKNEEELKKLEEWAKKWNWF-NH2): in test [1], the EC50 turned out to be 0.2 nM. Moreover, in test [2], the Activity was 9.9%. For the same compound, in test [3], the Tm was 79 °C.

Turning to `CC[C@H](C)[C@H](NC(=O)[C@H](CCC(=O)O)NC(=O)[C@H](CCC(=O)O)NC(=O)[C@H](CO)NC(=O)[C@H](CCCCN)NC(=O)[C@H](CCCCN)NC(=O)[C@@H](NC(=O)[C@H](CC(C)C)NC(=O)[C@H](CCC(=O)O)NC(=O)[C@H](CCC(=O)O)NC(=O)[C@@H](NC(=O)[C@H](CC(C)C)NC(=O)[C@H](CO)NC(=O)[C@@H](NC(=O)[C@H](Cc1ccc(O)cc1)NC(C)=O)[C@@H](C)O)[C@@H](C)CC)[C@@H](C)CC)C(=O)N[C@@H](CCC(N)=O)C(=O)N[C@@H](CCCCN)C(=O)N[C@@H](CCCCN)C(=O)N[C@@H](CC(N)=O)C(=O)N[C@@H](CCC(=O)O)C(=O)N[C@@H](CCC(=O)O)C(=O)N[C@@H](CCC(=O)O)C(=O)N[C@@H](CC(C)C)C(=O)N[C@@H](CCCCN)C(=O)N[C@@H](CCCCN)C(=O)N[C@@H](CC(C)C)C(=O)N[C@@H](CCC(=O)O)C(=O)N[C@@H](CCC(=O)O)C(=O)N[C@@H](Cc1c[nH]c2ccccc12)C(=O)N[C@@H](C)C(=O)N[C@@H](CCCCN)C(=O)N[C@@H](CCCCN)C(=O)N[C@@H](Cc1c[nH]c2ccccc12)C(=O)N[C@@H](CC(N)=O)C(=O)N[C@@H](Cc1c[nH]c2ccccc12)C(=O)N[C@@H](Cc1ccccc1)C(N)=O` (Ac-YTSLIEELIKKSEEIQKKNEEELKKLEEWAKKWNWF-NH2), in test [1], the EC50 was 0.8 nM. The Activity in test [2] turned out to be 10.4%. In addition, the Tm in test [3] was determined as 74 °C.

Turning to `CC[C@H](C)[C@H](NC(=O)[C@H](CC(C)C)NC(=O)[C@H](CCC(=O)O)NC(=O)[C@H](CCC(=O)O)NC(=O)[C@@H](NC(=O)[C@H](CC(C)C)NC(=O)[C@H](CO)NC(=O)[C@@H](NC(=O)[C@H](Cc1ccc(O)cc1)NC(C)=O)[C@@H](C)O)[C@@H](C)CC)C(=O)N[C@@H](CCCCN)C(=O)N[C@@H](CCCCN)C(=O)N[C@@H](CO)C(=O)N[C@@H](CCC(=O)O)C(=O)N[C@@H](CCC(=O)O)C(=O)N[C@@H](Cc1ccccc1)C(=O)N[C@@H](CCC(N)=O)C(=O)N[C@@H](CCCCN)C(=O)N[C@@H](CCCCN)C(=O)N[C@@H](CC(N)=O)C(=O)N[C@@H](CCC(=O)O)C(=O)N[C@@H](CCC(=O)O)C(=O)N[C@@H](CCC(=O)O)C(=O)N[C@@H](CC(C)C)C(=O)N[C@@H](CCCCN)C(=O)N[C@@H](CCCCN)C(=O)N[C@@H](CC(C)C)C(=O)N[C@@H](CCC(=O)O)C(=O)N[C@@H](CCC(=O)O)C(=O)N[C@@H](Cc1c[nH]c2ccccc12)C(=O)N[C@@H](C)C(=O)N[C@@H](CCCCN)C(=O)N[C@@H](CCCCN)C(=O)N[C@@H](Cc1c[nH]c2ccccc12)C(=O)N[C@@H](CC(N)=O)C(=O)N[C@@H](Cc1c[nH]c2ccccc12)C(=O)N[C@@H](Cc1ccccc1)C(N)=O` (Ac-YTSLIEELIKKSEEFQKKNEEELKKLEEWAKKWNWF-NH2), in test [1], the EC50 stood at 2.6 nM. In test [2], the Activity amounted to 5.3%. The Tm in test [3] worked out at 64 °C.

Regarding `CC[C@H](C)[C@H](NC(=O)[C@H](CC(C)C)NC(=O)[C@H](CCC(=O)O)NC(=O)[C@H](CCC(=O)O)NC(=O)[C@@H](NC(=O)[C@H](CC(C)C)NC(=O)[C@H](CO)NC(=O)[C@@H](NC(=O)[C@H](Cc1ccc(O)cc1)NC(C)=O)[C@@H](C)O)[C@@H](C)CC)C(=O)N[C@@H](CCCCN)C(=O)N[C@@H](CCCCN)C(=O)N[C@@H](CCC(N)=O)C(=O)N[C@@H](CCC(=O)O)C(=O)N[C@@H](CCC(=O)O)C(=O)N[C@@H](CCC(N)=O)C(=O)N[C@@H](CCC(N)=O)C(=O)N[C@@H](CCCCN)C(=O)N[C@@H](CCCCN)C(=O)N[C@@H](CC(N)=O)C(=O)N[C@@H](CCC(=O)O)C(=O)N[C@@H](CCC(=O)O)C(=O)N[C@@H](CCC(=O)O)C(=O)N[C@@H](CC(C)C)C(=O)N[C@@H](CCCCN)C(=O)N[C@@H](CCCCN)C(=O)N[C@@H](CC(C)C)C(=O)N[C@@H](CCC(=O)O)C(=O)N[C@@H](CCC(=O)O)C(=O)N[C@@H](Cc1c[nH]c2ccccc12)C(=O)N[C@@H](C)C(=O)N[C@@H](CCCCN)C(=O)N[C@@H](CCCCN)C(=O)N[C@@H](Cc1c[nH]c2ccccc12)C(=O)N[C@@H](CC(N)=O)C(=O)N[C@@H](Cc1c[nH]c2ccccc12)C(=O)N[C@@H](Cc1ccccc1)C(N)=O` (Ac-YTSLIEELIKKQEEQQKKNEEELKKLEEWAKKWNWF-NH2), the EC50 in test [1] came out at 7.9 nM. Moreover, the Activity in test [2] turned out to be 2.2%. Moreover, the Tm in test [3] turned out to be 60 °C.
